Assay results as given in US20260297022A1, “PROCESS FOR THE PREPARATION OF SULFAMOYLBENZOIC ACID DERIVATIVES” (IAMA THERAPEUTICS S.R.L., priority 2023, published 2026).
Converted amounts (≈) assume the structure as drawn.

assay: Aqueous kinetic solubility from a solution of 10 mM DMSO in phosphate buffered saline (PBS) at pH 7.4; assay type: physicochemical; conditions: PBS pH 7.4, 25° C., target concentration 250 μM, 2.5% DMSO, UV quantification at 215 nm, read-out: Kinetic sol. PBS pH 7.4
Procedure: Aqueous kinetic solubility of derivative compounds of the benzoic acid starting from a solution of 10 mM DMSO in phosphate buffered saline (PBS) at pH 7.4
Aliquots of 30 μL of stock solution of the test compound in 10 mM DMSO were incubated in phosphate buffered saline (PBS) at pH 7.4 at 25° C. for 24 hours. After centrifugation, the compound dissolved in the supernatant was quantified by […].
The target concentration was 250 μM with a final concentration of 2.5% DMSO. Aqueous kinetic solubility was determined by UV quantification at 215 nm. The kinetic solubility was then calculated by dividing the peak area of the supernatant by the peak area of the reference and multiplying by the reference concentration (μM) and the dilution factor (1.25).

Row | Structure (SMILES) | solubility kinetic at 24 h
1 | CN(C)S(=O)(=O)c1cc(C(=O)O)ccc1NCCCCCCCC(F)(F)F [Compound 1, 3-(dimethylsulfamoyl)-4-(8,8,8-trifluorooctylamino)benzoic acid] | >250 µM
2 | CCCCCCNc1ccc(C(=O)O)cc1S(N)(=O)=O [Compound 2] | 238 µM (≈ 71.5 µg/mL)
3 | CCCCCCCCNc1ccc(C(=O)O)cc1S(N)(=O)=O [Compound 3] | >250 µM
4 | CCCCCCNc1ccc(C(=O)O)cc1S(=O)(=O)NC [Compound 4] | 247 µM (≈ 77.7 µg/mL)
5 | CCCCCCNc1ccc(C(=O)O)cc1S(=O)(=O)N(C)C [Compound 5] | 243 µM (≈ 79.8 µg/mL)
6 | CN(C)S(=O)(=O)c1cc(C(=O)O)ccc1NCCC(C)(C)C [Compound 6] | >250 µM
7 | CN(C)S(=O)(=O)c1cc(C(=O)O)ccc1NCCCC(F)(F)F [Compound 7] | 245 µM (≈ 86.8 µg/mL)
8 | CN(C)S(=O)(=O)c1cc(C(=O)O)ccc1NCCCCCC(F)(F)F [Compound 8] | 249 µM (≈ 95.2 µg/mL)
9 | COCCNc1ccc(C(=O)O)cc1S(=O)(=O)N(C)C [Compound 9] | 237 µM (≈ 71.7 µg/mL)
10 | COCCCCNc1ccc(C(=O)O)cc1S(=O)(=O)N(C)C [Compound 10] | 247 µM (≈ 81.6 µg/mL)
11 | COCCCCCCNc1ccc(C(=O)O)cc1S(=O)(=O)N(C)C [Compound 11] | >250 µM
12 | O=C(O)c1ccc(NCCCCCCCC(F)(F)F)c(S(=O)(=O)NC2CCCC2)c1 [Compound 12] | 223 µM (≈ 100 µg/mL)
13 | O=C(O)c1ccc(NCCCCCCCC(F)(F)F)c(S(=O)(=O)N2CCOCC2)c1 [Compound 13] | 244 µM (≈ 110 µg/mL)
14 | O=C(O)c1ccc(NCCCCCCCC(F)(F)F)c(S(=O)(=O)NC2CCOCC2)c1 [Compound 14] | 244 µM (≈ 114 µg/mL)
15 | CN(C)S(=O)(=O)c1cc(C(=O)O)c(Cl)cc1NCCCCCCCC(F)(F)F [Compound 16] | 241 µM (≈ 107 µg/mL)
16 | CNS(=O)(=O)c1cc(C(=O)O)ccc1NCCCCCCCC(F)(F)F [Compound 18] | 242 µM (≈ 95.9 µg/mL)
17 | COc1cc(NCCCCCCCC(F)(F)F)c(S(=O)(=O)N(C)C)cc1C(=O)O [Compound 20] | 188 µM (≈ 82.8 µg/mL)

same assay, conditions: aqueous buffer, PBS pH 7.4, 25° C., target concentration 250 μM, 2.5% DMSO, UV quantification at 215 nm, read-out: Kinetic sol. PBS pH 7.4

Row | Structure (SMILES) | solubility kinetic at 24 h
18 | CN(C)S(=O)(=O)c1cc(C(=O)O)ccc1N1CCN(CCCCC(F)(F)F)CC1 [Compound 15] | > 250 µM
19 | C=CCCCCCNc1ccc(C(=O)O)cc1S(=O)(=O)N(C)C [Compound 17] | > 250 µM
20 | NS(=O)(=O)c1cc(C(=O)O)c(O)cc1NCCCCCCCC(F)(F)F [Compound 19] | > 250 µM
